Measured values: patent US9155729B2, “Thiazolidinedione analogues” (Metabolic Solutions Development Company, LLC, priority 2006, dated 2015)
Marks after values point to notes of the source that are not given here.

Tests used:
[1] = target: T1, PPARγ (Homo sapiens, UniProt P37231); assay: Commercial PPARγ binding assay (Invitrogen, PPAR-LBD/Fluormone PPAR Green complex); conditions: for PPARγ binding signal (fluorescence polarization, Fluormone PPAR Green displacement): mean of three experiments
T1 construct: purchased Invitrogen Corporation, Carlsbad, Calif
T1 sequence (P37231 238-503 limits assumed): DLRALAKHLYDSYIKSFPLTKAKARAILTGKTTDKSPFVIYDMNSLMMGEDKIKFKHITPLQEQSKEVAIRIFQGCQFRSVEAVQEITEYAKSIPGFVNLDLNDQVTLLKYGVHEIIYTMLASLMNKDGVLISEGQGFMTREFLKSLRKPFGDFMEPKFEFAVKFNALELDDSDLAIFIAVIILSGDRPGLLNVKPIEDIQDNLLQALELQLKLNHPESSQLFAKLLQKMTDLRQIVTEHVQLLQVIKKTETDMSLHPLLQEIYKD
Method: The ability of several exemplary compounds of the present invention, shown in Table A, to bind to PPARγ was measured using a commercial binding assay (Invitrogen Corporation, Carlsbad, Calif.) that measures the test compounds ability to bind with PPAR-LBD/Fluormone PPAR Green complex. These assays were performed on three occasions with each assay using four separate wells (quadruplicate) at each concentration of tested compound. The data are mean and SEM of the values obtained from the three experiments. […] Compounds were added at the concentrations shown, which range from 0.1-100 micromolar.

[2] = tested on: Diabetic KKAy mice; assay: Glucose, insulin and triglyceride in diabetic KKAy mice, 4 days oral dosing; format: in vivo; conditions: 93 mg/kg orally for 4 days, fasted, blood approx. 18 hours after last dose, mean and SEM, N=6-12
Method: The insulin sensitizing and antidiabetic pharmacology are measured in the KKA^Y mice as previously reported [Hofmann, C., Lomez, K., and Colca, J. R. (1991). Glucose transport deficiency corrected by treatment with the oral anti-hyperglycemic agent Pioglitazone. Endocrinology, 129:1915-1925.]. Compounds are formulated in 1% sodium carboxy methylcellulose, and 0.01% tween 20 and dosed daily by oral gavage.
Compounds were formulated by suspension and orally dosed to KKAy mice at 93 mg/kg for 4 days. The compounds were first dissolved in DMSO and then placed into aqueous suspension containing 7-10% DMSO, 1% sodium methylcarboxycellulose, and 0.01% Tween 20. On the fifth day, the mice were fasted and blood samples were obtained approximately 18 hours after the last dose. The parameters were measured by standard assay methods. Data are mean and SEM N=6-12 mice.

[3] = tested on: aP2; assay: Hepatic mRNA for aP2, biomarker for PPARγ activation in vivo, KKAy mice
Method: (§1) KKAy mice were dosed for 7 days with 20 mg rosigltiazone (positive control) and 100 mg/kg of compound 1 in suspension (1% sodium methyl carboxymethyl cellulose/0.01% Tween 80). On the 8th day, fasting, glucose, and insulin were measured, see Table D. The liver was isolated was used to measure hepatic mRNA for aP2, a biomarker for PPARγ activation in vivo. […] Data are mean and (SEM) for 8 mice/group.

[4] = tested on: Diabetic KKAy mice; assay: Glucose and insulin in diabetic KKAy mice dosed 7 days with compound 1 or rosiglitazone; format: in vivo; conditions: 20 mg rosiglitazone or 100 mg/kg compound 1, fasting, 8th day, mean, 8 mice/group
Method: as §1

PPARγ binding signal (fluorescence polarization, Fluormone PPAR Green displacement) ([1]; 1 μM compound): 223
PPARγ binding signal (fluorescence polarization, Fluormone PPAR Green displacement) ([1]; 3 μM compound): 228
PPARγ binding signal (fluorescence polarization, Fluormone PPAR Green displacement) ([1]; 10 μM compound): 207
PPARγ binding signal (fluorescence polarization, Fluormone PPAR Green displacement) ([1]; 50 μM compound): 174
PPARγ binding signal (fluorescence polarization, Fluormone PPAR Green displacement) ([1]; 100 μM compound): 170
PPARγ binding signal (fluorescence polarization, Fluormone PPAR Green displacement) ([1]; .1 μM compound): 227
PPARγ binding signal (fluorescence polarization, Fluormone PPAR Green displacement) ([1]; .3 μM compound): 232
Binding to PPARγ (in words) ([1]; referring to FIG. 1 and Table B): particularly poor binders
Structure (SMILES): CCc1ccc(C(=O)COc2ccc(CC3SC(=O)NC3=O)cc2)nc1 (stereo not drawn) [Compound 1]
Glucose [2]: 402 +/− 25* mg/dl
Insulin [2]: 7.6 +/− 1.9* ng/ml
Triglycerides [2]: 115 +/− 18* mg/dl
aP2 (relative expression in liver) ([3]; KKAy mice dosed 7 days, 20 mg rosiglitazone or 100 mg/kg compound 1, hepatic mRNA, mean, 8 mice/group): 5.7
Activation of PPARγ in vivo as compared to the positive control (in words) ([3]; KKAy mice, hepatic aP2 mRNA, 100 mg/kg for 7 days): little activation of PPARγ
Glucose [4]: 291 mg/dL
Insulin [4]: 1.9 ng/mL
